Test results taken from patent US10517889B2, “Modulators of SMAD7 expression” (Ionis Pharmaceuticals, Inc., priority 2017, dated 2019).
Strand notation (5' to 3'): a small letter for the sugar, then the base; units joined by * are phosphorothioate-linked, units joined directly phosphodiester-linked; [ ] holds rarer units or linkages, { } end groups; capitals alone tell only the bases. k = constrained ethyl (cEt); [5mC] = 5-methylcytosine; d = 2'-deoxy (DNA)

These substances were tested on human SMAD7 mRNA (assay: Antisense inhibition of human SMAD7 mRNA expression in Hep3B cells by 3-10-3 cEt gapmers, 10,000 nM, electroporation (Example 2)). Details: Hep3B cells, 10,000 nM antisense oligonucleotide, electroporation, approximately 24 hours, RT-PCR primer probe set RTS5062, relative to untreated control cells.
Assay type: cell-based
Method: Antisense oligonucleotides were designed to target human SMAD7 mRNA and were tested for their effects on SMAD7 mRNA expression in vitro. The antisense oligonucleotides were tested in a series of experiments that had similar culture conditions, as described below. ION 771576, described in the studies above and which is a 5-10-5 MOE gapmer, was also included in these assays. Cultured Hep3B cells at a density of 20,000 cells per well were transfected using electroporation with 10,000 nM antisense oligonucleotide. After a treatment period of approximately 24 hours, RNA was isolated from the cells and SMAD7 mRNA levels were measured by quantitative real-time PCR. Primer probe set RTS5062 was used to measure human SMAD7 mRNA levels. SMAD7 mRNA levels were adjusted according to total RNA content, as measured by RIBOGREEN®. Results are presented as percent inhibition of SMAD7 mRNA expression, relative to untreated control cells.
The newly designed chimeric antisense oligonucleotides in the Tables below were designed as 3-10-3 cEt gapmers. The gapmers are 16 nucleosides in length, wherein the central gap segment comprises often 2′-deoxynucleosides and is flanked by wing segments on the 5′ direction and the 3′ direction comprising three nucleosides each. Each nucleoside in the 5′ wing segment and each nucleoside in the 3′ wing segment has a cEt sugar modification. The internucleoside linkages throughout each gapmer are phosphorothioate (P═S) linkages. All cytosine residues throughout each gapmer are 5-methylcytosines.
“Start site” indicates the 5′-most nucleoside to which the gapmer is targeted in the human gene sequence. “Stop site” indicates the 3′-most nucleoside to which the gapmer is targeted human gene sequence. […] Some of the oligonucleotides presented were complementary to SMAD7 mRNA sequences RefSeqNo. NM_001190821.1 (designated herein as SEQ ID NO: 3) or RefSeqNo. NM_001190822.1 (designated herein as SEQ ID NO: 4), and are presented in a separate table shown below.

Substance | % Inhibition [%]
799953 (antisense kA*kG*kA*dA*dA*dA*dT*dG*d[5mC]*d[5mC]*d[5mC]*dA*d[5mC]*k[5mC]*kA*kG) [compound 799953] | 0
800092 (antisense kA*kT*k[5mC]*d[5mC]*dT*dG*dA*dT*dG*dA*dG*dA*dA*kA*kA*k[5mC]) [compound 800092] | 0
799970 (kT*k[5mC]*k[5mC]*dT*d[5mC]*dA*dG*dG*dA*dA*dA*d[5mC]*dA*k[5mC]*kA*kG; antisense) [compound 799970] | 43
798926 (antisense k[5mC]*kA*kA*dA*dG*dT*dA*dG*dT*dT*dT*dG*dA*kA*kG*kT) [compound 798926] | 17
799896 (antisense k[5mC]*kT*kT*dA*d[5mC]*d[5mC]*dT*d[5mC]*dA*d[5mC]*d[5mC]*d[5mC]*dA*k[5mC]*k[5mC]*kT) [compound 799896] | 36
800035 (k[5mC]*kA*kA*dA*dG*dG*d[5mC]*d[5mC]*d[5mC]*d[5mC]*dT*d[5mC]*dG*kA*kA*k[5mC]; antisense) [compound 800035] | 34
799874 (k[5mC]*kA*kG*dA*d[5mC]*dT*dG*dG*dA*dA*dA*dA*dG*kT*kT*kA; antisense) [compound 799874] | 0
799976 (kT*k[5mC]*kA*dA*dA*dG*dG*dT*dT*dA*dA*d[5mC]*dA*kG*k[5mC]*kA; antisense) [compound 799976] | 34

Same assay, conditions: Hep3B cells, electroporation with 10,000 nM antisense oligonucleotide, approximately 24 hours, RTS5062, percent inhibition of SMAD7 mRNA relative to untreated control cells

Substance | % Inhibition [%]
799650 (antisense k[5mC]*kA*kG*d[5mC]*dA*dG*dA*d[5mC]*dA*dG*dG*d[5mC]*dA*kA*kA*kA) [compound 799650] | 46
799807 (antisense kA*kA*kA*dT*dT*dG*dG*dA*dA*dT*dT*dG*dA*kG*kA*k[5mC]) [compound 799807] | 37
799830 (antisense kG*kA*kA*dG*dA*dG*dT*dT*dT*dG*d[5mC]*dG*dA*kG*k[5mC]*k[5mC]) [compound 799830] | 55
799273 (antisense kA*kT*k[5mC]*dA*dT*dT*dA*d[5mC]*dT*d[5mC]*dG*dA*dG*kT*k[5mC]*kA) [compound 799273] | 41
799573 (kA*kA*kT*dA*dA*dA*dA*d[5mC]*d[5mC]*dA*dT*d[5mC]*dT*kA*kA*k[5mC]; antisense) [compound 799573] | 0

Same assay, conditions: Hep3B cells, electroporation with 10,000 nM antisense oligonucleotide, approximately 24 hours, SMAD7 mRNA by RT-PCR (RTS5062), relative to untreated control cells

Substance | % Inhibition [%]
830162 (antisense kA*k[5mC]*kA*dA*dG*dG*dT*dG*dA*dA*dA*dG*dT*kT*kA*kT) [compound 830162] | 20
830078 (kA*k[5mC]*k[5mC]*dA*d[5mC]*dA*dT*dT*d[5mC]*dA*dG*dG*dG*kT*kG*kT; antisense) [compound 830078] | 0
830114 (kG*kA*kG*d[5mC]*d[5mC]*d[5mC]*d[5mC]*dA*dT*dT*d[5mC]*dA*dT*kT*kA*kA; antisense) [compound 830114] | 22
799430 (antisense kA*kG*k[5mC]*d[5mC]*dA*d[5mC]*dA*dA*dG*dT*d[5mC]*dA*d[5mC]*kA*kA*k[5mC]) [compound 799430] | 29
799408 (antisense kT*kT*kA*dA*dA*dT*d[5mC]*d[5mC]*dT*dG*dA*dG*dA*kA*k[5mC]*kA) [compound 799408] | 27

Same assay, conditions: Hep3B cells, electroporation with 10,000 nM antisense oligonucleotide, approximately 24 hours, primer probe set RTS5062, relative to untreated control cells

Substance | % inhibition of SMAD7 mRNA expression [%] | % Inhibition [%]
799071 (antisense kG*kG*kA*dA*dG*dG*dG*dA*dA*dT*dA*dA*dG*kA*k[5mC]*kA) [compound 799071] | 44 | –
798970 (antisense kT*k[5mC]*k[5mC]*dT*dG*d[5mC]*d[5mC]*dG*dA*dT*d[5mC]*dA*dT*kA*k[5mC]*k[5mC]) [compound 798970] | 41 | –
799077 (antisense k[5mC]*kA*kG*dG*dA*dG*d[5mC]*dA*dG*dA*dT*dG*dG*k[5mC]*k[5mC]*kA) [compound 799077] | – | 28
799026 (k[5mC]*k[5mC]*kG*d[5mC]*dT*dT*dG*dG*dG*dA*d[5mC]*dT*dG*k[5mC]*kA*kA; antisense) [compound 799026] | 1 | –
798760 (kG*kA*kG*dG*dG*d[5mC]*dG*dG*d[5mC]*dT*dG*d[5mC]*dG*k[5mC]*kA*kG; antisense) [compound 798760] | 47 | –
799229 (kA*kA*k[5mC]*dA*d[5mC]*d[5mC]*d[5mC]*dA*dT*dA*dG*dA*dA*kA*kA*kA; antisense) [compound 799229] | 22 | –
799126 (antisense kG*kA*k[5mC]*dA*dT*d[5mC]*d[5mC]*d[5mC]*d[5mC]*dG*d[5mC]*dT*dT*kG*k[5mC]*kT) [compound 799126] | 4 | –
799424 (antisense k[5mC]*kT*k[5mC]*d[5mC]*dA*dA*dA*dG*dG*d[5mC]*dT*dG*d[5mC]*kA*kG*kG) [compound 799424] | 34 | –
799007 (kT*kG*k[5mC]*d[5mC]*dG*d[5mC]*dT*d[5mC]*d[5mC]*dT*dG*d[5mC]*dA*k[5mC]*kA*k[5mC]; antisense) [compound 799007] | 47 | –
772717 (kA*k[5mC]*kT*d[5mC]*d[5mC]*dT*dT*dT*dA*dG*dA*dA*dA*kA*kA*k[5mC]; antisense) [compound 772717] | 28 | –
799092 (antisense kG*kG*k[5mC]*dA*d[5mC]*dT*dG*dG*dG*dT*dG*dA*dG*k[5mC]*kA*kA) [compound 799092] | 30 | –
799178 (antisense kA*kG*k[5mC]*dT*dT*dA*dT*dG*dT*dT*dA*dA*dA*kG*kT*k[5mC]) [compound 799178] | – | 34
799084 (antisense k[5mC]*kT*kT*dG*dG*dG*dA*dA*dG*d[5mC]*d[5mC]*d[5mC]*dA*kT*k[5mC]*kT) [compound 799084] | 0 | –

Same assay, conditions: Hep3B cells, electroporation, 10,000 nM antisense oligonucleotide, approximately 24 hours, RTS5062, relative to untreated control cells

Substance | % inhibition of SMAD7 mRNA expression [%]
799502 (antisense k[5mC]*kA*kA*dA*dT*dA*dG*dG*dA*dA*dA*dG*d[5mC]*k[5mC]*kA*kA) [compound 799502] | 31
799522 (antisense kT*kT*kT*dA*dA*dA*dG*dA*d[5mC]*dA*dG*dG*dT*kT*kT*k[5mC]) [compound 799522] | 32
799561 (kG*kG*kA*dA*dT*dG*dA*dA*d[5mC]*dT*dT*dT*dG*k[5mC]*k[5mC]*kT; antisense) [compound 799561] | 45

Same assay, conditions: SMAD7 mRNA, Hep3B cells, 10,000 nM antisense oligonucleotide, electroporation, approximately 24 hours, primer probe set RTS5062, relative to untreated control cells

Substance | % Inhibition [%]
801138 (antisense kG*kT*kT*dA*dG*dG*dA*d[5mC]*d[5mC]*dT*dG*dG*dG*kA*kA*k[5mC]) [compound 801138] | 6
772593 (kA*k[5mC]*kG*d[5mC]*dA*d[5mC]*d[5mC]*dA*dG*dT*dG*dT*dG*kA*k[5mC]*k[5mC]; antisense) [compound 772593] | 42
829732 (antisense k[5mC]*kA*kT*dG*dA*dA*dG*dA*dA*dG*dT*d[5mC]*dG*kG*kG*k[5mC]) [compound 829732] | 40
829751 (antisense kG*k[5mC]*kA*dG*d[5mC]*dT*d[5mC]*dG*d[5mC]*d[5mC]*dT*d[5mC]*d[5mC]*kT*k[5mC]*k[5mC]) [compound 829751] | 40
829729 (antisense kA*kG*kG*d[5mC]*dG*d[5mC]*dA*dG*dG*d[5mC]*dG*dA*d[5mC]*kA*kG*k[5mC]) [compound 829729] | 66
790498 (k[5mC]*kT*k[5mC]*dT*dA*dG*dT*dT*d[5mC]*dG*d[5mC]*dA*dG*kA*kG*kT; antisense) [compound 790498] | 11

Same assay, conditions: SMAD7 mRNA, Hep3B cells, electroporation with 10,000 nM antisense oligonucleotide, approximately 24 hours, primer probe set RTS5062, relative to untreated control cells

Substance | % Inhibition [%]
829870 (antisense k[5mC]*k[5mC]*kA*dG*dT*dG*dT*dG*dG*d[5mC]*dG*dG*dA*k[5mC]*kT*kT) [compound 829870] | 19
829839 (kA*k[5mC]*kA*d[5mC]*dA*dG*dT*dA*dG*dA*dG*d[5mC]*d[5mC]*kT*k[5mC]*k[5mC]; antisense) [compound 829839] | 8
829834 (kG*kT*kG*dT*dG*dA*d[5mC]*d[5mC]*dG*dA*dT*d[5mC]*d[5mC]*k[5mC]*k[5mC]*kA; antisense) [compound 829834] | 29
830003 (antisense kG*kG*k[5mC]*dA*dT*dT*d[5mC]*dT*dT*dT*dT*dA*dG*k[5mC]*k[5mC]*k[5mC]) [compound 830003] | 0
